Consider 13 compounds from ChEMBL document CHEMBL1201862, “PubChem BioAssay data set” (2004).

Activity calls are given as the source filed them.

For test [1], the target named is DNA dC->dU-editing enzyme APOBEC-3A (Homo sapiens, UniProt P31941). The experiment in a line: Dose Response confirmation of small molecule APOBEC3A DNA Deaminase Inhibitors via a fluorescence-based single-stranded DNA deaminase assay. [Related pubchem assays (depositor defined):AID493011, AID493024]. The test is classed as functional.
DNA dC->dU-editing enzyme APOBEC-3A, sequence (P31941 whole entry): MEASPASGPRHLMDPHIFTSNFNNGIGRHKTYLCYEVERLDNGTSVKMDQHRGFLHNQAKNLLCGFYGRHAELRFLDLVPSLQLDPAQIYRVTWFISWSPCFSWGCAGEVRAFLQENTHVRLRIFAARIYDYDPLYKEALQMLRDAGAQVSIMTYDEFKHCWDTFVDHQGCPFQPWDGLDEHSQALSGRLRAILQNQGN
In test [2] the target is DNA dC->dU-editing enzyme APOBEC-3G (Homo sapiens, UniProt Q9HC16). The test is classed as functional.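 Also: Dose-response counterscreen measuring inhibition of APOBEC3G DNA deaminase activity, run while confirming APOBEC3A inhibitors.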
DNA dC->dU-editing enzyme APOBEC-3G, sequence (Q9HC16 whole entry): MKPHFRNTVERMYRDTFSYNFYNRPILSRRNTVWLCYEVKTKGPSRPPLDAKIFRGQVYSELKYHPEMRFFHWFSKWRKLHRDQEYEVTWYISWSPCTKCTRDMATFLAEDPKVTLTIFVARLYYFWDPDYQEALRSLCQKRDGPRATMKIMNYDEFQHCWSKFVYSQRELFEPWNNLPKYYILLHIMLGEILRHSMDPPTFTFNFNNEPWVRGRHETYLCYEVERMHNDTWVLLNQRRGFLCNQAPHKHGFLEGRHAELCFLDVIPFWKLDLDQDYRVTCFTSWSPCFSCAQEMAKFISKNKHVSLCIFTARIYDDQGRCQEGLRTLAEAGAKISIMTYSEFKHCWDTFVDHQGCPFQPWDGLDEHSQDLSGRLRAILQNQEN
Test [3] addresses T1, Tyrosine-protein phosphatase non-receptor type 7 (Homo sapiens, UniProt P35236).
T1 sequence (P35236 whole entry): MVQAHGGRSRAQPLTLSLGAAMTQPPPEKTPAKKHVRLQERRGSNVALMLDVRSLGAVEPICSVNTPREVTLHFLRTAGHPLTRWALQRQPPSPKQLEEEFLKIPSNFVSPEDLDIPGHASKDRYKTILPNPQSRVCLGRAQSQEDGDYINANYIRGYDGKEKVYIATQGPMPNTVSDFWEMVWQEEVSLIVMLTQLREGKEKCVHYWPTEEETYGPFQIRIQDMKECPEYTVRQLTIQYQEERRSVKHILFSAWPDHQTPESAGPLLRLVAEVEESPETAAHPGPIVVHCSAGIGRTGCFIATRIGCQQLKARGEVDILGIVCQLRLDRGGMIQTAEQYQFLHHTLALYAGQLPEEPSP
The test is classed as functional.

For test [4], the target named is T2, Tyrosine-protein phosphatase non-receptor type 22 (Homo sapiens, UniProt Q9Y2R2).
T2 sequence (Q9Y2R2 whole entry): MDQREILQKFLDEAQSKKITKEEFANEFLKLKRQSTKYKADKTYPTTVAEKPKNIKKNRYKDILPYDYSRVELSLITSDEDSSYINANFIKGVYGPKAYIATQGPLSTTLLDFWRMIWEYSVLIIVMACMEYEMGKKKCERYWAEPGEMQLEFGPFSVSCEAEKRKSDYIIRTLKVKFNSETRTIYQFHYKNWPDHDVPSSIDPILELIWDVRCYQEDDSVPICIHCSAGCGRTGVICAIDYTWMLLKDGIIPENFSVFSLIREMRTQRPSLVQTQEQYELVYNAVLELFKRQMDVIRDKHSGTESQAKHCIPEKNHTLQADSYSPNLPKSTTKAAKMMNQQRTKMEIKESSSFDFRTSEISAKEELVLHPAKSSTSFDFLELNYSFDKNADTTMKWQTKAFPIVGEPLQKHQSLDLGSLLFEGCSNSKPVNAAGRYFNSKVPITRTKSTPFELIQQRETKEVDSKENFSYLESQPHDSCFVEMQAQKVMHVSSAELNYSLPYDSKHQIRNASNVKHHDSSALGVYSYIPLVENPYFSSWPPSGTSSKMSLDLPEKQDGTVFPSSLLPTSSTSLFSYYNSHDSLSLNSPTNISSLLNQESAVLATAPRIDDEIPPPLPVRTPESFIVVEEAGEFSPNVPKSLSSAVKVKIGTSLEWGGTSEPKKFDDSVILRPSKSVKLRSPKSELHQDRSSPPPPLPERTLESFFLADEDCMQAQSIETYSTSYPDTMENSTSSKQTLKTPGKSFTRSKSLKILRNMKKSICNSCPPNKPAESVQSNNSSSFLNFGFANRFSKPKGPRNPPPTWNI
The test is classed as functional.

The target of test [5] is T2, Tyrosine-protein phosphatase non-receptor type 22. The test is classed as functional. This is another data set of the same source.
Another test in a line: cells. The test is classed as functional.
Test [6] has as its target T3, Kappa-type opioid receptor (Homo sapiens, UniProt P41145). The test is classed as functional.
Test [7] concerns the target T4, Beta-galactosidase (Escherichia coli, UniProt Q8VNN2). The test is classed as functional.
The target of test [8] is T3, Kappa-type opioid receptor. The test is classed as functional. The source holds these as a separate data set.
The target of another test is T5, Bcl-2-related protein A1 (Mus musculus, UniProt Q07440).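 Also: confirmatory dose–response counterscreen on Bfl-1, used to check hits from a UBC13 polyubiquitin inhibitor campaign.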
T5 sequence (Q07440 whole entry): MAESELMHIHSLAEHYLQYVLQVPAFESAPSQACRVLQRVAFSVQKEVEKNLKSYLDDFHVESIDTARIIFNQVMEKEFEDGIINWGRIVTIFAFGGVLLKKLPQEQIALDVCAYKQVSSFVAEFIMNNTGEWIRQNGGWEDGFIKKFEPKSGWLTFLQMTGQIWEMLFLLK
The test is classed as functional.

Test [9] concerns the target T6, Ubiquitin-conjugating enzyme E2 N (Homo sapiens, UniProt P61088).
T6 sequence (P61088 whole entry): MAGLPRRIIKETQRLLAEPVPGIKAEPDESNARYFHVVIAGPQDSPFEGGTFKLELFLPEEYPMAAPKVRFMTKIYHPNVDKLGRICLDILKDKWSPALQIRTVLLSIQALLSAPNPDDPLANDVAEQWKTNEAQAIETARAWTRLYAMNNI
The test is classed as functional.

For test [10], the target named is T6, Ubiquitin-conjugating enzyme E2 N. It is filed as functional. The source holds these as a separate data set.
Test [11] is described as follows: THP-1 cell cytotoxicity, dose response, cytotoxicity control for non-replicating M. tuberculosis project (AID 489025). It is filed as functional.
Test [12] in a line: Vero E6 cell cytotoxicity, dose response, cytotoxicity control for non-replicating M. tuberculosis project, secondary assay (AID 492998). It is filed as functional, VeroE6. Conditions: Vero C1008.
For test [13], the target named is T7, Microphthalmia-associated transcription factor (Homo sapiens, UniProt O75030).
T7 sequence (O75030 whole entry): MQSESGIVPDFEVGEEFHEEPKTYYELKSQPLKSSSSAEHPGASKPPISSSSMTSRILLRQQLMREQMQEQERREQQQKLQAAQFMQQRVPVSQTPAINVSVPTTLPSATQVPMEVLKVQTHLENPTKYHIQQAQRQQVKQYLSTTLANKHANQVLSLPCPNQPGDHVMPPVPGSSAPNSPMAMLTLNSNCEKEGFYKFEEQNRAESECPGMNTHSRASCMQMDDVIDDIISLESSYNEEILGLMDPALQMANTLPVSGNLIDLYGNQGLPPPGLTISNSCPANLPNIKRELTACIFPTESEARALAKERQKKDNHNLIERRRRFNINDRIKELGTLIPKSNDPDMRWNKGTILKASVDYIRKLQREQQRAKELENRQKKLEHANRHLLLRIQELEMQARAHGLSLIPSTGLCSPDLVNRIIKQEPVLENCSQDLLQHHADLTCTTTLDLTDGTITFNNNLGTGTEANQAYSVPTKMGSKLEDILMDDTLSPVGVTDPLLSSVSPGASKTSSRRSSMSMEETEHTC
The experiment in a line: reducers of TRPM1 reporter luminescence, concentration series – cell-based, SK-MEL-5, cherry-picked, set 3, MITF inhibitor project, dose response (AID 493073).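 Also: SK-MEL-5 melanoma cells with luciferase driven by the MITF target TRPM1 promoter.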 The test is classed as functional.

Test [14] can be described thus: A cytotoxicity screen of small molecule inhibitors of the PhoP region in Salmonella typhi identified in the primary screen. [Related pubchem assays: 1850, 1864, 1985 ]. It is filed as functional.
Test [15] has as its system Streptococcus sp. 'group A'. Put plainly: Streptococcus pyogenes SK(-)GAS viability under kanamycin – luminescence, BacTiterGlo, confirmation, counter-screen for streptokinase expression inhibitor project, dose response (AID 1900). It is filed as functional, organism-based. A general note: The purpose of a counterscreen is to sort out artefacts and off-target activity.

In test [16] the target is T4, Beta-galactosidase. Put plainly: PubChem AID 485352. It is filed as functional.
Test [17] concerns the target T8, Type-1 angiotensin II receptor (Homo sapiens, UniProt P30556).
T8 sequence (P30556 whole entry): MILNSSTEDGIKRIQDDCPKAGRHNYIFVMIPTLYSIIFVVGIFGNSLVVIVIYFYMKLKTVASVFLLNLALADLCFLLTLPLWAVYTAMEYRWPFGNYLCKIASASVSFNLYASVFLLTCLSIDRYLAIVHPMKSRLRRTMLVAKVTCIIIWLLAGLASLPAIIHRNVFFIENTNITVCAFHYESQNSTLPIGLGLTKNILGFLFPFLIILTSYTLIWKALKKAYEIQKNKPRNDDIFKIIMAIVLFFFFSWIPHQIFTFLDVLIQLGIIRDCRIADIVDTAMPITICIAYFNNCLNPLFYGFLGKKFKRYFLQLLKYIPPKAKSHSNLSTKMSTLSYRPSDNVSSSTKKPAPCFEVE
The experiment in a line: antagonism of angiotensin II type 1 receptor – cell-based, uHTS hits, selectivity assay for APJ receptor antagonist project, dose response (AID 463214).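 Also: antagonist potency against angiotensin II stimulated AT1 response.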 The test is classed as functional.

The next test concerns Streptococcus. The experiment in a line: GAS UMAA2166 growth inhibition – luminescence, BacTiterGlo, counter-screen for streptokinase expression inhibitor project, dose response (AID 1915).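 Also: potency for reduction of bacterial viability or growth.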 It is filed as functional, organism-based.
Test [18] concerns the target T9, Heat shock factor protein 1 (Mus musculus, UniProt P38532).
T9 sequence (P38532 whole entry): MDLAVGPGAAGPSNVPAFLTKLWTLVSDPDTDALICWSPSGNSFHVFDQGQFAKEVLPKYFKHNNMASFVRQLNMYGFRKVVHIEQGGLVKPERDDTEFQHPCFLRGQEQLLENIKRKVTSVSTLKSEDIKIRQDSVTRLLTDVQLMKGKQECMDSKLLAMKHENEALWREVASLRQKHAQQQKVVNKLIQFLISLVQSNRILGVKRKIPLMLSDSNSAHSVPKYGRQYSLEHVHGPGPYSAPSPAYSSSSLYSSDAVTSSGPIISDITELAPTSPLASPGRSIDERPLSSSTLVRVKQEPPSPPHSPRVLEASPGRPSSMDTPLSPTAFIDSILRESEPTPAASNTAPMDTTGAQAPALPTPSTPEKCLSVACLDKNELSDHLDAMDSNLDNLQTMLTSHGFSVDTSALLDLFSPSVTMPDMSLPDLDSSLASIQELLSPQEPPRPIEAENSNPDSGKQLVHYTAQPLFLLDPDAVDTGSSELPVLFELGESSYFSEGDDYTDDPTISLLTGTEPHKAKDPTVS
Put plainly: enhancement of HSF1-driven luciferase signal – cell-based, NIH3T3, luminescence, dose retest, confirmation (AID 435004).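 Also: stress induced by proteasome inhibitor MG132 added 30 min after compound; luciferase reporter driven by HSF1 response element in NIH3T3 cells; actives raise luminescence as potentiators of the MG132 stress response.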 The test is classed as functional.

The IC50 is the midpoint of a concentration-inhibition curve. In general, EC50 refers to the concentration needed to bring the measured effect to its halfway point. For orientation: CC50 means the concentration at which the toxic effect on the cells reaches its halfway point. As usually defined, the AC50 is the concentration at which the activity in the assay is half-maximal.

T3 sequence (P41145 whole entry): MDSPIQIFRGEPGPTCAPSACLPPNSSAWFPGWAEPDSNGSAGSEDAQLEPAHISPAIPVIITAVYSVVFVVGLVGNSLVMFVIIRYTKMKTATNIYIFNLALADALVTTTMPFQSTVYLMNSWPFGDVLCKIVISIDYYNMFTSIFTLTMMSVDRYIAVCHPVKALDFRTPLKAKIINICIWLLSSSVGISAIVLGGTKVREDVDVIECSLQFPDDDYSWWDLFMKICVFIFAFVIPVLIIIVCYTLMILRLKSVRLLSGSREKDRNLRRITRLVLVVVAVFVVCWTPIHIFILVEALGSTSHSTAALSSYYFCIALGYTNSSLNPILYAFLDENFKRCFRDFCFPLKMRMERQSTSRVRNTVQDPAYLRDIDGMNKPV
T4 sequence (Q8VNN2 whole entry): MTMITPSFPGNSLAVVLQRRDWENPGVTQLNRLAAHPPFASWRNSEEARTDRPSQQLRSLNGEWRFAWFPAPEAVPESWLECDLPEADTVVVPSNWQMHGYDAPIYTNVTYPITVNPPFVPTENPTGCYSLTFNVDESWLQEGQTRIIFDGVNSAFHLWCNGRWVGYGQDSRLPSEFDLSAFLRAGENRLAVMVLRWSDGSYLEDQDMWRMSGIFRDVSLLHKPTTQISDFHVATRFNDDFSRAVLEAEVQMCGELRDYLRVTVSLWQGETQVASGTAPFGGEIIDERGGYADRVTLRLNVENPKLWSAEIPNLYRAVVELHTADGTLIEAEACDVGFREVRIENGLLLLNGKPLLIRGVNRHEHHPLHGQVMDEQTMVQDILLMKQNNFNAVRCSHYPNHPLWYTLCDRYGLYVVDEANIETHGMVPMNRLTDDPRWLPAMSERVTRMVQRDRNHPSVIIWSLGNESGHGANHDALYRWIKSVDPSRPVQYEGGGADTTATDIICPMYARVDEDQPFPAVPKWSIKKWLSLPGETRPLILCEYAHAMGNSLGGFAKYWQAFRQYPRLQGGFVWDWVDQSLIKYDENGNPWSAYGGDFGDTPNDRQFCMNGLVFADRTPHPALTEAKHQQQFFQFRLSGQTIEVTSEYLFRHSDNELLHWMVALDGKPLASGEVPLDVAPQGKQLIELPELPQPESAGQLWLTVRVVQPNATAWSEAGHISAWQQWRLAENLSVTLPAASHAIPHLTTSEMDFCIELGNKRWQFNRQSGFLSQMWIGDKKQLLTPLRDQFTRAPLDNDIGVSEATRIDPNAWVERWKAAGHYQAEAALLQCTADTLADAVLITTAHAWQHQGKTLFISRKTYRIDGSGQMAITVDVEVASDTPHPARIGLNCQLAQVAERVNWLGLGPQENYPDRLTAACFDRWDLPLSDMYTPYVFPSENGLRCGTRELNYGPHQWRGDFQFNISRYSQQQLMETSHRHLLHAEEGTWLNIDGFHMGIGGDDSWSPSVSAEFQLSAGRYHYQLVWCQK

For the compound `O=C(CSc1ncnc2nc[nH]c12)Nc1ccccc1C(F)(F)F`, the half-maximal inhibitory concentration (IC50) was 50.8 µM (active) in test [1] and 93.7 µM (active) in test [2].
Take `CCOC(=O)NC(=O)C(=CNc1ccc(C)cc1)C(=O)NC(=O)OCC`: the IC50 in test [3], in test [4] and in [5] was > 79.4 µM (inactive) throughout.
On to `CCOC(=O)c1ccc(COC(=O)c2cc3ccccc3oc2=O)o1`, for which the IC50 in “cells” was > 50 µM (active).
For `CCC(=O)Nc1cc(C(=O)O)ccc1S(=O)(=O)c1ccc(C)cc1`, the IC50 was 16.4 µM (active) in test [1] and 42.2 µM (active) in [2].
`CSC(=S)N/N=C(\C)c1ccccc1`: the IC50 in test [6] is 8.37 µM (active); in [8], greater than 32 µM. The EC50 on Beta-galactosidase [7] is > 31.5 µM (inactive).
`Cc1ccc(CN2CCC(CNC(=O)c3ccc(NC(=O)C4=CSCCO4)cc3)CC2)cc1`: the values for the IC50 (on Bcl-2-related protein A1; in test [9]; in test [10]) were > 20 µM (inactive), 19.4 µM (active) and > 20 µM (inactive), respectively.
With `O=C(CNC(=O)c1cccc(F)c1)N/N=C/c1ccc([N+](=O)[O-])s1`, the CC50 in test [11] is 28 µM (active); in test [12] it was > 20 µM (active). In addition, the concentration at half-maximal activity (AC50) in test [13] was 7.45 µM (active). The 50% inhibitory concentration (IC50) in the test “cells” is 30.7 µM (active).
Regarding `COCCN(CC(=O)Nc1cccc(C)c1C)C(=O)CN1C(=O)NC2(CCCCC2)C1=O`, the values for the IC50 in test [1] and in test [2] were 11.1 µM (active) and 12.2 µM (active), respectively.
Regarding `N=C(NOS(=O)(=O)c1ccc(Cl)cc1)c1cccnc1`, the concentration for a half-maximal effect (EC50) in test [14] was > 50 µM (active).
Regarding `O=[N+]([O-])c1cc(Br)cc(/C=N/n2cnnc2)c1O`, the IC50 in test [3], in test [4] and in test [5] was > 79.4 µM (inactive) in each case.
On to `CCCOc1cccc(-c2cc(C(=O)N/N=C/c3ccccn3)c3ccccc3n2)c1`, for which the 50% effective concentration (EC50) in test [15] was 1.95 µM (active); at Beta-galactosidase [16], > 40 µM (inactive); at Beta-galactosidase [7], > 31.5 µM (inactive); with Streptococcus, 2.21 µM (active). Also, the results for the IC50 in [17], in test [6] and in test [8] were 5.9 µM (active), 8.44 µM (active) and greater than 32 µM, respectively.
As to `COc1ccc(CCNC(=O)CN(C2CCCCC2)S(C)(=O)=O)cc1OC`, the IC50 in test [1] is 4.1 µM (active); in [2] it was 5.58 µM (active).
On to `Cc1ccc(-c2cc(C(F)F)nc(S(C)(=O)=O)n2)cc1`, for which the CC50 in [11] is 23.9 µM (active); in [12] it was > 20 µM (active). Further, the 50% effective concentration (EC50) in test [18] is 13.1 µM (active). For the same compound, the IC50 in “cells” was 7.88 µM (active).
